How the values were obtained:
[1] = tested on: FACS-purified Fox12-DsRed-positive cells; experiment: Estradiol and progesterone production by FACS-purified Fox12-DsRed-positive cells (ELISA of culture medium); format: cell-based, mouse; details: FSH 100 ng/ml or 8-br-cAMP 1 mM; cultured 24, 48 or 72 hours; versus vehicle (PBS) control; cells isolated on day 12 of ESC differentiation
Experimental: (§1) FIG. 5A is a graph showing estradiol production by FACS-purified Fox12-DsRed positive cells (2×10^3 cells per well), which spontaneously differentiated in embryonic stem cell cultures, maintained in culture for up to 3 days (FSH, 100 ng/ml; 8-br-cAMP, 1 mM). Data are the mean±SEM of 3 independent cultures (*, P<0.05 versus vehicle control).
as §1, with “5B” for “5A”, “progesterone” for “estradiol”
To identify and track ovarian somatic cells in differentiating ESC cultures, the expression of the early granulosa cell marker, Fox12, in differentiating ESC cultures was mapped. […] A 739 by region of the Fox12 gene promoter was identified using Genome Vista. The region was isolated from mouse genomic DNA and cloned into the pDsRed2-1 vector (Clontech, Mountain View, Calif.,) or the pLenti6 lentiviral construct containing the complete open reading frame of DsRed (Gateway Lentiviral System; Invitrogen), thus creating a DsRed expression vector under control of the Fox12 gene promoter.
Promoter activity and specificity were verified using mouse granulosa cells as a positive control and 293 cells (Invitrogen) as a negative control. To verify the Fox12 gene promoter-driven DsRed expression, undifferentiated TgOG2 ESCs were stably transfected with the Fox12-pDsRed2-1 construct via electroporation, followed by clonal selection and expansion. Alternatively, ESCs were virally transduced following initiation of differentiation using viral supernatant produced by 293 cells transfected with the Fox12-DsRed lentiviral construct (pLenti6-Fox12-DsRed). Cells were analyzed for expression of DsRed by fluorescence microscopy and isolated by fluorescence-activated cell sorting (FACS).
For FACS, differentiating ESCs were removed from the plate by either 0.25% trypsin-EDTA (prior to day 10 of differentiation) or manually scraped. […] The cells were analyzed and sorted using a FACS Aria flow cytometer (BD Biosciences, San Jose, Calif.).
Estradiol and progesterone concentrations were measured in culture medium from FACS-purified Fox12-DsRed-positive cells that had been re-plated and cultured for 24, 48 or 72 hours in the presence of PBS (vehicle), 100 ng/ml follicle stimulating hormone (FSH; NIDDK, NIH, Bethesda, Md.) or 1 mM 8-bromoadenosine-3′,5′-cyclic monophosphate (8-br-cAMP; Sigma-Aldrich). […]

[2] = tested on: OSC differentiation into oocytes; experiment: GCV treatment of transgenic mice with Stra8 promoter-driven HSVtk; counts of oocyte-containing primordial follicles; format: in vivo
Experimental: FIGS. 2A-D are graphs that show the OSCs of aged mice lose the ability to support primordial follicle formation. Transgenic mice, ranging from 2-11 months, having an inducible “suicide gene” (herpes simplex virus thymidine kinase or HSVtk) that specifically disrupts OSC differentiation into oocytes only in the presence of the HSVtk pro-drug ganciclovir (GCV), were tested for their ability to lose and regain their oocyte reserves after activation and deactivation of the suicide gene, respectively.
Animals and treatments. Transgenic pStra8-Gfp mice with expression of green fluorescent protein (GFP) driven by the promoter of the meiosis commitment gene, stimulated by retinoic acid gene 8 (Stra8;) mice were generated as described in Imudia et al., Fertil Steril, 100:1451-1458 (2013). Transgenic mice with herpes simplex virus thymidine kinase (HSVtk) expression driven by the Stra8 promoter were generated by replacing the GFP-coding sequence in the pStra8-Gfp construct with cDNA encoding GFP-fused HSVtk and the constructs were then sent to Genoway for generation of the transgenic lines, as described (Imudia et al., Fertil Steril, 100:1451-1458 (2013). For comparative studies, wild type and transgenic siblings from breeding colonies were used in parallel to rule out any potential effect of background strain on the outcomes. For treatments, the HSVtk pro-drug, ganciclovir (GCV; Roche), was dissolved in sterile water at 10 mg/ml, and then diluted in sterile 1×-concentrated phosphate-buffered saline (PBS) for daily dosing (10 mg/kg for 21 days, intraperitoneal injection). Control animals were injected with vehicle (PBS) in parallel.
Oocyte counts. Prior to the start of PBS or GCV injections, 21 days after daily dosing with GCV, and 21 days after ceasing GCV treatment, ovaries were collected from mice at the indicated ages, fixed, embedded in paraffin, and serially sectioned for histomorphometry-based quantification of the number of oocyte-containing primordial follicles, as detailed (Jones and Krohn, J Endocrinol, 21:469-495 (1961); Johnson et al., Nature, 428:145-150 (2004); and Wang and Tilly, Cell Cycle, 9:339-349 (2010)). All samples were assessed in a completely blinded fashion, and reproducibility was independently confirmed with randomly selected slides by a second observer. In all cases, variation in counts between observers was less than 7%.

Nc1ncnc2c1nc(Br)n2[C@@H]1O[C@@H]2COP(=O)(O)O[C@H]2[C@H]1O [8-br-cAMP, 8-bromoadenosine-3′,5′-cyclic monophosphate]
estradiol production [1]: significant increase | progesterone production [1]: significantly enhance

Nc1nc(O)c2ncn(COC(CO)CO)c2n1 [GCV, ganciclovir]
response of primordial follicle pool to GCV treatment ([2]; advanced aged mice, 10-11 months of age, 10 mg/kg daily for 21 days, intraperitoneal): completely refractory | primordial follicle reserve after GCV treatment ([2]; middle-age adult mice, 5-6 months of age, 10 mg/kg daily for 21 days, intraperitoneal): reduced primordial follicle reserve | time for primordial follicle pool to regenerate back to control (PBS, vehicle) levels after ceasing GCV treatment ([2]; young adult (2-3 months) and middle-age (5-6 months) mice): ≤ 21 days | primordial follicle reserve after GCV treatment ([2]; young adult mice, 2-3 months of age, 10 mg/kg daily for 21 days, intraperitoneal): reduced primordial follicle reserve

follicle stimulating hormone [FSH]
estradiol production [1]: significant increase | progesterone production [1]: only 8-br-cAMP was able to significantly enhance

— patent publication US20160237402A1, “Methods and Compositions for Ex Vivo Generation of Developmentally Competent Eggs from Germ Line Cells Using Autologous Cell Systems” (NORTHEASTERN UNIVERSITY, priority 2013, published 2016)
